Test results taken from patent publication US20260216354A1, “ANTI-CMET ANTIBODY, ANTIBODY-DRUG CONJUGATE, AND PREPARATION METHOD THEREFOR AND USE THEREOF” (MEDILINK THERAPEUTICS (SUZHOU) CO., LTD., priority 2022, published 2026).

How the values were obtained:
[1] = system: NCI-H716 cells; assay: Flow cell affinity of ADCs, NCI-H716; type: binding, human; details: flow cytometry
[2] = system: NCI-H716 cells; assay: In-vitro killing activity Test 1 (CCK8), NCI-H716; type: cell-based, human; details: 7 days, read-out: EC50 of ADC killing (nM) NCI-H716
Excerpt: (§1) Tumor cells in a good growth status are collected by digestion and centrifugation, SW480 (purchased from ATCC, Cat. No. CCL-228), NCI-H358 (purchased from ATCC, Cat. No. CRL-5807), LS1034 cells (Nanjing Cobioer Biosciences Co., Ltd., Cat. No. CBP60013), NCI-H716 (purchased from ATCC, Cat. No. CCL-251) cells are directly collected by centrifugation, the foregoing cells are all resuspended with RPMI 1640+5% FBS+Ps, and are counted, and 5000 (LS1034 and NCI-H716) or 3000 (SW480 and NCI-H358) cells are plated in each well in a volume of 100 uL; ADCs to be tested are diluted separately with resuspension media corresponding to the foregoing 3 types of cells, starting at 300 µg/mL ([…]) for 3-fold dilution with 11 concentration points, and added into a plate with 100 µL/well, to make the ADCs have a final concentration of 150 µg/mL, for incubation at 37° C. for 5 days (LS1034 and NCI-H358) or 7 days (NCI-H716 and SW480); after the incubation is completed, CCK8 is added with 20 µL/well, for a reaction for 1-3 hours; and values are read out at 450 nm by a microplate reader and imported into Graphpad Prism for curve-fitting.

[3] = system: SW480 cells; assay: In-vitro killing activity Test 1 (CCK8), SW480; type: cell-based, human; details: 7 days, read-out: EC50 of ADC killing (nM) SW480
Excerpt: as §1

[4] = system: human colon cancer SW480 cell lines; assay: In-vivo efficacy in SW480 CDX models; parameters: species or system mouse; details: 5 mg/kg, i.v., QW*2, SW480 CDX
Excerpt: (§2) To verify the in-vivo efficacy of the anti-human cMet ADC drugs and evaluate the anti-tumor effects of the tested drugs in female Balb/c Nude mouse models subjected to subcutaneous xenografts, 5-6 week old female Balb/c Nude mice (Vital River) are purchased, human non-small cell lung cancer NCI-H358 cells that have grown to the logarithmic growth phase are digested with EDTA and then resuspended with PBS, each mouse is subcutaneously inoculated with 5*10^6 cells, and when the tumor grows to a size of […], intravenous administration is performed once a week with 1 mg/kg or 3 mg/kg each time.
A similar method is used to evaluate the anti-tumor effects of anti-cMet ADC test drugs in female BALB/c nude mouse animal models subjected to subcutaneous xenografts of human colon cancer SW480 cell lines.

[5] = system: human colorectal adenocarcinoma NCI-H716 cell lines; assay: In-vivo efficacy in NCI-H716 CDX models; parameters: species or system mouse; details: i.v., QW*3, NCI-H716 CDX
Excerpt: as §2
A similar method is used to evaluate the anti-tumor effects of cMet ADC test drugs in female BALB/c nude mouse animal models subjected to subcutaneous xenografts of human colorectal adenocarcinoma NCI-H716 cell lines.

[6] = target: T1, h.cMet-ECD-His (Homo sapiens, UniProt P08581); assay: ELISA protein affinity of cMET antibodies before and after conjugating into ADCs; type: binding
T1 construct: a human cMet ectodomain recombinant protein (Human HGF R/c-MET Protein, His Tag); purchased Acrobiosystems Co., Ltd. / ACRO Biosystems MET-H5227
T1 sequence (P08581 25-932 limits assumed): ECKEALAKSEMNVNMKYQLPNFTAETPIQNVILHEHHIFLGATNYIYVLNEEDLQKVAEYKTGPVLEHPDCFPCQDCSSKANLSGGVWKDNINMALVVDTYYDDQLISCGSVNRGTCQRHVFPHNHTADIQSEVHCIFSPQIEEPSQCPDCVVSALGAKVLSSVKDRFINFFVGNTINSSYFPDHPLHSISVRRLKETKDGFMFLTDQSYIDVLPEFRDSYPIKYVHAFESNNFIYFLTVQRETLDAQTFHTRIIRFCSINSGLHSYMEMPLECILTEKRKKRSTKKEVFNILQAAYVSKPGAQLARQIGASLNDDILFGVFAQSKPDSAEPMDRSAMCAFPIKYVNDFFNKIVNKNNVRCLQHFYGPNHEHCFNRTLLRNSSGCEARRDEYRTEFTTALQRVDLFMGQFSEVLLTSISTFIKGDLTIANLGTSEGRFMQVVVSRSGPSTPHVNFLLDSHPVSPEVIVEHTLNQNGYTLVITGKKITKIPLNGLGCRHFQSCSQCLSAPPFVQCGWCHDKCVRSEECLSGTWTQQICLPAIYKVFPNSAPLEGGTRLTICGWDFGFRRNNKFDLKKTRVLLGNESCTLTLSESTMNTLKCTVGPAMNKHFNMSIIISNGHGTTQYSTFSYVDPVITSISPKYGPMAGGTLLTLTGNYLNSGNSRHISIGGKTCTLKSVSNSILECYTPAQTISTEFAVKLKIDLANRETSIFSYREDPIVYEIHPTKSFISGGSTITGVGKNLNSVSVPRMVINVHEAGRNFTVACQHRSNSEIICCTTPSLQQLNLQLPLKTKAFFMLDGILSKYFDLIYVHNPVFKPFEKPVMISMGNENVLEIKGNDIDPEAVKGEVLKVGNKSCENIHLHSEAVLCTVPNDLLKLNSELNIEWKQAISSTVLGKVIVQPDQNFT
Protocol: Proteins anti-His-Rabbit Fc are coated with the CBS to […], and are blocked with 2% BSA (in PBS) at 37° C. for 2 hours, h.cMet-ECD-His of […] is added for incubation at 37° C. for 2 hours, after 2 hours, antibodies to be tested or ADCs that are gradiently diluted (starting at […] for 3-fold dilution with 11 concentration points) are added for incubation at 37° C. for 2 hours, after 2 hours, HRP-labeled anti-human specific secondary antibodies (Jackson, 115-035-164) are added for incubation at 37° C. for 1 hour, a TMB substrate is added for color development, and after the color development is stopped using HCl of 2M, final products are added into a machine to read out absorbance values at […].

[7] = system: NCI-H358 cells; assay: Flow cell affinity of ADCs, NCI-H358; type: binding, human; details: flow cytometry
[8] = system: NCI-H69 cells; assay: Flow cell affinity of ADCs, NCI-H69; type: binding, human; details: flow cytometry
[9] = system: LS1034 cells; assay: Flow cell affinity of ADCs, LS1034; type: binding, human; details: flow cytometry
[10] = system: LS1034 cells; assay: In-vitro killing activity Test 1 (CCK8), LS1034; type: cell-based, human; details: 5 days, read-out: EC50 of ADC killing (nM) LS1034
Excerpt: as §1

[11] = system: NCI-H358 cells; assay: In-vitro killing activity Test 1 (CCK8), NCI-H358; type: cell-based, human; details: 5 days, read-out: EC50 of ADC killing (nM) NCI-H358
Excerpt: as §1

[12] = system: human non-small cell lung cancer NCI-H358 cells; assay: In-vivo efficacy in NCI-H358 CDX models (Test 1); parameters: species or system mouse; details: 1 mg/kg, i.v., QW*3, NCI-H358 CDX
Excerpt: as §2

[13] = target: T2, h.cMet (cMet-ECD-his) (Homo sapiens, UniProt P08581); assay: ELISA affinity of humanized antibodies to human cMet; type: binding; details: cMet-ECD-his coated
T2 construct: a human cMet ectodomain recombinant protein (Human HGF R/c-MET Protein, His Tag); purchased Acrobiosystems Co., Ltd. / ACRO Biosystems MET-H5227
T2 sequence (P08581 25-932 limits assumed): as above
Excerpt: […]

[14] = system: cynoMet (cyno.cMet-ECD-His); assay: ELISA affinity of humanized antibodies to cyno Met; type: binding; details: cyno.cMet-ECD-His captured
Excerpt: […]

[15] = system: MKN45 cells; assay: Flow affinity of humanized antibodies to MKN45 cells; type: binding, human; details: flow cytometry
Protocol: MKN45 cells (Nanjing Cobioer Biosciences Co., Ltd., CBP60488) are collected by trypsin digestion and centrifugation, and are washed three times with a pre-cooled PBS, the cells are resuspended with 1% BSA (in the PBS), and are plated into a 96-well conical bottom plate with 2^10^5 cells (50 ul) per well, anti-cMet humanized antibodies to be tested are gradiently diluted with 1% BSA starting at 20 μg/ml with a 4-fold dilution gradient and 8 concentration points, 50 ul diluted antibodies are mixed well with the cells in the conical bottom plate for incubation at 4° C. for 1 hour, after three times of washing with the pre-cooled PBS, 100 ul of 1% BSA (containing 1 uL anti-human APC fluorescent secondary antibodies, BioLegend, Cat. No. 410712) is added to each well for incubation at 4° C. for 0.5 hours, and after three times of washing with the pre-cooled PBS, the cells are resuspended for detection by a flow cytometer (Beckman, cytoflex).

[16] = target: T1, h.cMet-ECD-His; assay: ForteBio dynamic affinity to h.cMet-ECD-His; type: binding; details: ProA sensor
Protocol: Dynamic affinities of the humanized antibodies are assayed through ForteBio. Experimental steps are as follows: 1. sensor preparation: taking out a ProA sensor, and pre-wetting the sensor with a PBST diluent (pH 7.4) for 10 min; 2. sample dilution: separately diluting antibodies that need to be solidified to 5 μg/ml, antigens h.cMet-ECD-His (Acrobiosystems Co., Ltd., Cat. No.: MET-H5227) starting at 500 nM for 2-fold dilution with 5 concentration points and a 0 concentration point set; 3. setting a program, putting a sensor plate and a sample plate away, starting the program, and the sensor being regenerated with a glycine solution of 20 mM (pH 1.7); 4. using Octet analysis software to analyse data.

[17] = system: MKN45 cells; assay: Endocytic activity on MKN45 cells; type: cell-based, human; details: 10 μg/mL, 37° C.
Protocol: MKN45 cells are collected by trypsin digestion and centrifugation, incubated with humanized antibodies to be detected of a concentration of 10 μg/mL at 4° C. for 1 hour, and washed 3 times with the PBS, the cells are resuspended with DMEM+10% FBS that has been pre-warmed at 37° C., […], after 3 times of washing with a pre-cooled PBS, 1.2 uL of anti-human APC fluorescent secondary antibodies are added for incubation at 4° C. for 0.5 hours, and after three times of washing with the PBS, the cells are resuspended and added into a machine. Endocytosis rates are calculated according to the following formula: endocytosis rate (%)= ? 1−(an average fluorescence value of a test sample at this time point−an average fluorescence value of a negative control sample at this time point)/(an average fluorescence value of the test sample at 0 hour−an average fluorescence value of the negative control sample at 0 hour) ? * 100.

[18] = target: T3, (Homo sapiens, UniProt P08581); assay: FACS competition of humanized antibodies with HGF ligand on MKN45 cells; type: binding; details: HGF-His-biotin 50 ng/ml
T3 construct: MKN45 cells expressing c-MET antigens; endogenous in cells; host or cells: MKN45
T3 sequence (P08581 25-1390): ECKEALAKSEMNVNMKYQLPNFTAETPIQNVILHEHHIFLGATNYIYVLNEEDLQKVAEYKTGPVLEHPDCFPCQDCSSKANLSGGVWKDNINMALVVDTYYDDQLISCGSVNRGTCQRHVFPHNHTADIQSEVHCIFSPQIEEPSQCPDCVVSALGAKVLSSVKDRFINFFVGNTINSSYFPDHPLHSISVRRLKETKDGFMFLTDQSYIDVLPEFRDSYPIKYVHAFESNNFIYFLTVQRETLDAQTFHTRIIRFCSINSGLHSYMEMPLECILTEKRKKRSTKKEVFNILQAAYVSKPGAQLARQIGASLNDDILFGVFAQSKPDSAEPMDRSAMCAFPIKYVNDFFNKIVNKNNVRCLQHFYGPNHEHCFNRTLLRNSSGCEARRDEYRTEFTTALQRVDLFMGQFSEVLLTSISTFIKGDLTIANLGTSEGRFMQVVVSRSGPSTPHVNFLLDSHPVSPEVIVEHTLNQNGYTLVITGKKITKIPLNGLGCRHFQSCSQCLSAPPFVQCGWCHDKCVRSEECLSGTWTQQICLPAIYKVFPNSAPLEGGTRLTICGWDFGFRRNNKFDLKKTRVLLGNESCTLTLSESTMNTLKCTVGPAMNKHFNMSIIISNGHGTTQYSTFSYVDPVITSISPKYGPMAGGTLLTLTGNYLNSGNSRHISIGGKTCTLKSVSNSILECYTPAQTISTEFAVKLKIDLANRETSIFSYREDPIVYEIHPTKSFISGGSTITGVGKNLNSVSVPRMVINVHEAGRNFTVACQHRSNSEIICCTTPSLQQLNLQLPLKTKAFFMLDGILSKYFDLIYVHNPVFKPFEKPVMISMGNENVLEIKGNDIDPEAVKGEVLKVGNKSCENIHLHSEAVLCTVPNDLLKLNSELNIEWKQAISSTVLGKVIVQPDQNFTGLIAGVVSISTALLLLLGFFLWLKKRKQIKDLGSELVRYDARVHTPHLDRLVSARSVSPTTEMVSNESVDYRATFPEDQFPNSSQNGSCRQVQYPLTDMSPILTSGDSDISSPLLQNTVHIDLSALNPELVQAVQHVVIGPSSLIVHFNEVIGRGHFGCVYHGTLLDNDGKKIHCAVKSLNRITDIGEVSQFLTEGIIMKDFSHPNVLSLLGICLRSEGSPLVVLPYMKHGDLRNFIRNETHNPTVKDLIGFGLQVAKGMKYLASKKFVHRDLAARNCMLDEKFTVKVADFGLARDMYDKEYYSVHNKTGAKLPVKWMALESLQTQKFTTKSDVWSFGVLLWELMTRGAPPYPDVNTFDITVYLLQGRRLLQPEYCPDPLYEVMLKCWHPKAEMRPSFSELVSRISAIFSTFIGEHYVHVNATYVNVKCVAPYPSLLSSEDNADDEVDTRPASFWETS
Protocol: (§3) Therefore, competitive actions of the humanized antibodies on ligand binding and actions of inhibiting HGF-induced ERK phosphorylation are detected.
(§4) MKN45 cells are collected by trypsin digestion and centrifugation, and are washed three times with a pre-cooled PBS, the cells are resuspended with 1% BSA (in PBS), and are plated into a 96-well conical bottom plate with 2^10^5 cells (50 ul) per well, anti-cMet humanized antibodies are gradiently diluted with 1% BSA, starting at 15 μg/ml to a final concentration from 5 μg/ml with a 3-fold dilution gradient and 8 dilution points, 50 ul diluted antibodies are mixed well with the cells in the conical bottom plate, HGF-His-biotin (from Chengdu NB Biolab Co., Ltd.) is diluted with 1% BSA to 150 ng/ml, and is added into the well plate with 50 ul/well, to make a final concentration of ligands of 50 ng/ml, for incubation at 4° C. for 1 hour after fully mixing, after three times of washing with the pre-cooled PBS, 100 ul of 1% BSA (containing 1 uL anti-biotin PE fluorescent secondary antibodies, BioLegend, Cat. No. 405204) is added to each well for incubation at 4° C. for 0.5 hours, and after three times of washing with the pre-cooled PBS, the cells are resuspended and detected by a flow cytometer (Beckman, cytoflex).

[19] = target: T4, HGF ligand on MKN45 cells (Homo sapiens, UniProt P08581); assay: as above; type: binding; details: HGF-His-biotin 50 ng/ml, MKN45
T4 construct: MKN45 cells expressing c-MET antigens; endogenous in cells; host or cells: MKN45
T4 sequence (P08581 25-1390): as above
Protocol: as §3, §4

ABT700-Vc-MMAE (DAR4): ADC of control antibody ABT700 conjugated to vc-MMAE (CAS No.: 646502-53-6), DAR value 4.0 [reference compound]
EC50 [1]: 11.6 nM
NCI-H716 Maximum signal value [1]: 3737
EC50 [2]: 288 nM
EC50 [3]: 71.6 nM
TGI (%) on Day 15 [4]: 15.06%
TGI (%) on Day 14 ([5]; 0.3 mg/kg): 1.7%
TGI (%) on Day 14 ([5]; 1 mg/kg): 3.5%

ABT700-Vc-MMAE (DAR9.7): ADC of control antibody ABT700 conjugated to vc-MMAE (CAS No.: 646502-53-6), DAR value 9.7 [reference compound]
EC50 [6]: 2.432 µg/mL
EC50 [7]: 0.917 nM
NCI-H358 Maximum signal value [7]: 32386
EC50 [8]: 0.212 nM
NCI-H69 Maximum signal value [8]: 8214
EC50 [9]: 0.852 nM
LS1034 Maximum signal value [9]: 8960
EC50 [10]: 53.7 nM
EC50 [11]: > 10000 nM
TGI (%) on Day 14 [12]: 84.6%

ABT700: control anti-c-Met antibody with a sequence from KEGG, ID: D11307 [reference compound]
h.cMet EC50 [13]: 0.004148 µg/mL
cynoMet EC50 [14]: 0.1434 µg/mL
MKN45 EC50 [15]: 0.1004 µg/mL
Maximum signal value ([15]; MKN45): 70415
ka [16]: 169000 M⁻¹ s⁻¹
kdis [16]: 3.91e-07 s⁻¹
Endocytosis rate % ([17]; 1 h): 7.9%
Endocytosis rate % ([17]; 2 h): 19.2%
Endocytosis rate % ([17]; 4 h): 44.5%
MKN45 IC50 [18]: 0.167 µg/mL
Maximum inhibition rate % [19]: 75%
EC50 [6]: 0.005257 µg/mL
